Measurements published in US11851436B2, “Fused bicyclic pyrimidine derivatives and uses thereof” (The Regents of the University of Colorado, A Body Corporate, priority 2021, dated 2023).

Tests used:
recombinant RSK2 kinase = recombinant RSK2 kinase (Homo sapiens (Human), UniProt P51812); experiment: LANCE Eu TR-FRET recombinant RSK2 kinase inhibition assay; format: biochemical; conditions: for IC50: recombinant RSK2, 3 μM ATP, mean ± S.D. (n=3)
Protocol: All reagents were prepared in kinase buffer containing 2 mM DTT, 50 mM HEPES, 1 mM EGTA, 10 mM MgCl2, 0.01% Tween 20, pH 7.5. […] RSK2 was used at a final concentration of […]. […] Assays were performed at 25° C. in a reaction mixture consisting of 2 μL serially diluted inhibitor solution, 4 μL kinase, 2 μL substrate, and 2 μL ATP. Reagents were incubated at room temperature for 1 h before the reaction was stopped through the addition of 5 μL of EDTA at a final concentration of 10 mM.
The exemplary compounds were evaluated for their effect on RSK2 activity in the recombinant TR-FRET kinase inhibition assay and their half-maximal inhibitory potency values (IC50) were calculated using nonlinear regression analysis of the log dose-response.

MOLM-13 cells = experiment: MTS cellular viability assay in MOLM-13 cells; format: cell-based; conditions: Homo sapiens, 72 hr, 60 μM to 250 nM, n=3, ±S.D.
Protocol: Cell Culture: MOLM-13 (DSMZ) cells were cultured in RPMI1640 (Gibco) supplemented with 10% FBS (Sigma Aldrich) and 1% penicillin/streptomycin solution (Cellgro) at 37° C. in an incubator humidifier with 95% air and 5% CO2. HEK293 cells (ATCC) were cultured in Dulbecco's Modified Eagle Medium (DMEM; Gibco) supplemented with 10% FBS (Sigma Aldrich) and 1% penicillin/streptomycin solution (Cellgro) at 37° C. in an incubator humidifier with 95% air and 5% CO2. HEK293 cells were allowed to adhere for 24 h prior to use in assays.
MTS Cellular Viability Assay: MOLM-13 cells were seeded into sterile 96-well plates (Corning) at 60,000 cells per well in 100 μL of media. Inhibitor solutions were administered in 50 μL over a concentration range from 60 μM to 247 nM and cells were incubated at 37° C. for 24 to 72 h. Following 3 h incubation with 30 μL CellTiter 96® Aqueous One Cell Proliferation Reagent (Promega), cell viability was measured by formazan concentration assessment through colorimetric analysis using a BioTek Synergy H1 Hybrid plate reader (Absorption=490).
Exemplary compounds were assessed in cell systems for effects on cell viability, as well as their ability to inhibit cellular RSK2 activity.

Sequence of recombinant RSK2 kinase (P51812 whole entry): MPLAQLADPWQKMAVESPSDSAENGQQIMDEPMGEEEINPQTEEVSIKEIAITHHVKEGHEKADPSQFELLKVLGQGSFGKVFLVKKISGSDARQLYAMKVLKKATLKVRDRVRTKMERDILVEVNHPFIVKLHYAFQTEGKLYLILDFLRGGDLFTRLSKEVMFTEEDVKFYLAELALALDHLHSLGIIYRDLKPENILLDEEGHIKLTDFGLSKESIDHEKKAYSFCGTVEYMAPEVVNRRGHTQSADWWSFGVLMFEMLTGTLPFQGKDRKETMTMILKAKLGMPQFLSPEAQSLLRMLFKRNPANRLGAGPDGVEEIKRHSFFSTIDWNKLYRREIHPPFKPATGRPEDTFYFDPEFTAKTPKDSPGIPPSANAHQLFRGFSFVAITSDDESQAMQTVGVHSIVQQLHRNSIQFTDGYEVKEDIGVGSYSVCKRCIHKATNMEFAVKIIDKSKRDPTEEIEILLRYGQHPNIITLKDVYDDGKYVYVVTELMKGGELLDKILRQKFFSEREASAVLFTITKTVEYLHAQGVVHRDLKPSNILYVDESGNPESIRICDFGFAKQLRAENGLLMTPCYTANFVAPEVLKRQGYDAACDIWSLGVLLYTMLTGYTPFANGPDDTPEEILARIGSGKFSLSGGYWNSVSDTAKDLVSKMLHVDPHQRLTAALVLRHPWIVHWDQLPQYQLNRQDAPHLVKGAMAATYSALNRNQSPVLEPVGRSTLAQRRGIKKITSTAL

| SMILES | IC50 (recombinant RSK2 kinase) | EC50 (MOLM-13 cells) | activity rank in the recombinant kinase assay (recombinant RSK2 kinase; statement in pharmacophore modeling text) |
| --- | --- | --- | --- |
| CC(C)CCn1cnc2cnc(Nc3cc(F)c(O)c(F)c3)nc21 [A1-2, 2,6-Difluoro-4-((9-isopentyl-9H-purin-2-yl)amino)phenol] | 55.5 ± 5.6 nM | 970 ± 100 nM |  |
| Oc1c(F)cc(Nc2ncc3ncn(-c4cccc(Oc5ccccc5)c4)c3n2)cc1F [A1-6, 2,6-Difluoro-4-((9-(3-phenoxyphenyl)-9H-purin-2-yl)amino)phenol] | 329 ± 37 nM |  |  |
| CC(C)CCn1ccc2cnc(Nc3cc(F)c(O)c(F)c3)nc21 [A1-15, 2,6-Difluoro-4-((7-isopentyl-7H-pyrrolo[2,3-d]pyrimidin-2-yl)amino)phenol] | 95.8 ± 11 nM | 1300 ± 60 nM |  |
| COC(=O)CCCc1ccc(-n2cnc3cnc(Nc4cc(F)c(O)c(F)c4)nc32)cc1 [A1-13, Methyl 4-(4-(2-((3,5-difluoro-4-hydroxyphenyl)amino)-9H-purin-9-yl)phenyl)butanoate] | 17.8 ± 1 nM | 13900 ± 700 nM | most active molecule |
| COC(=O)CCc1ccc(-n2cnc3cnc(Nc4cc(F)c(O)c(F)c4)nc32)cc1 [A1-12, Methyl 3-(4-(2-((3,5-difluoro-4-hydroxyphenyl)amino)-9H-purin-9-yl)phenyl)-propanoate] | 15.7 ± 4 nM |  |  |
| Oc1c(F)cc(Nc2ncc3ncn(-c4ccc(CCN5CCOCC5)cc4)c3n2)cc1F [A1-4, 2,6-Difluoro-4-((9-(4-(2-morpholinoethyl)phenyl)-9H-purin-2-yl)amino)phenol] | 18.4 ± 4 nM | 1900 ± 70 nM |  |
| Oc1c(F)cc(Nc2ncc3ncn(-c4ccc(Oc5ccccc5)cc4)c3n2)cc1F [A1-7, 2,6-Difluoro-4-((9-(4-phenoxyphenyl)-9H-purin-2-yl)amino)phenol] | 148 ± 27 nM |  |  |
| Oc1cccc(-n2cnc3cnc(Nc4cc(F)c(O)c(F)c4)nc32)c1 [A1-10, 2,6-Difluoro-4-((9-(3-hydroxyphenyl)-9H-purin-2-yl)amino)phenol] | 79.8 ± 4.6 nM |  |  |
| Oc1c(F)cc(Nc2ncc3ncn(-c4ccc(N5CCOCC5)cc4)c3n2)cc1F [A1-3, 2,6-Difluoro-4-((9-(4-morpholinophenyl)-9H-purin-2-yl)amino)phenol] | 24.6 ± 3 nM |  |  |
| Oc1c(F)cc(Nc2ncc3ccn(-c4ccc(N5CCOCC5)cc4)c3n2)cc1F [A1-16, 2,6-Difluoro-4-((7-(4-morpholinophenyl)-7H-pyrrolo[2,3-d]pyrimidin-2-yl)amino)phenol] | 25.7 ± 2.4 nM | 230 ± 3 nM |  |
| CN1CCN(c2ccc(-n3ccc4cnc(Nc5cc(F)c(O)c(F)c5)nc43)cc2)CC1 [A1-17, 2,6-Difluoro-4-((7-(4-(4-methylpiperazin-1-yl)phenyl)-7H-pyrrolo[2,3-d]pyrimidin-2-yl)amino)phenol] | 34.7 ± 1.3 nM | 70 ± 3 nM |  |
| Oc1ccc(-n2cnc3cnc(Nc4cc(F)c(O)c(F)c4)nc32)cc1 [A1-11, 2,6-Difluoro-4-((9-(4-hydroxyphenyl)-9H-purin-2-yl)amino)phenol] | 81.8 ± 0.7 nM |  |  |
